According to patent US10478419B2, “Use of daphnoretin in prevention of tissue or organ transplant rejection or graft-versus-host-disease” (MacKay Memorial Hospital, priority 2017, dated 2019):

How the values were obtained:
[1] = test system: human monocyte-derived dendritic cells (DCs); experiment: Morphological observation of monocyte-derived DCs (differentiation); format: cell-based
Method: (§1) Human peripheral blood mononuclear cells were collected from healthy donors and were isolated using Histopaque (Amersham Pharmacia Biotech, Piscataway, N.J., USA) for density gradient centrifugation. Erythrocytes were lysed by using 0.9% ammonium chloride incubated for 3 min at 37° C. Thereafter, CD14^+ monocytes were purified by gradient magnetic sorting method using miniMACS system with anti-CD14 microbeads (Miltenyi Biotec, Bergisch Bladbach, Germany). After incubation at 37° C. for 2 hr, nonadherent cells were removed and adherent cells were collected. The purity of isolated CD14^+ monocytes was over 90% by using flow cytometric analysis. Immature DCs were generated from CD14^+ monocytes by culture in RPMI 1640 medium supplemented with 10% fetal calf serum, 100 ng/mL GM-CSF (Schering-Plough, Munich, Germany), 50 ng/mL IL-4 (R&D Systems, Minneapolis, Minn., USA), and daphnoretin (0, 1.1, 3.3, 10 or 30 μM) every 3 days for 6 days in a humidified 5% CO2 incubator. To trigger maturation of DCs, immature DCs were incubated with lipopolysaccharide (LPS) (5 ng/mL) (Sigma, St. Louis, Mo., USA) and/or a combination of cytokines including 5 ng/mL TNF-α, 5 ng/mL IL-1β, 15 ng/mL IL-6 (R&D Systems, Minneapolis, Minn., USA), and 1 μg/mL prostaglandin E2 (PGE2) (Sigma-Aldrich, St. Louis, Mo., USA) for 24 hr. […]

[2] = test system: human monocyte-derived dendritic cells (DCs); experiment: Flow cytometric analysis of surface markers on monocyte-derived DCs; format: cell-based
Method: Human peripheral blood mononuclear cells were collected from healthy donors and were isolated using Histopaque (Amersham Pharmacia Biotech, Piscataway, N.J., USA) for density gradient centrifugation. Erythrocytes were lysed by using 0.9% ammonium chloride incubated for 3 min at 37° C. Thereafter, CD14^+ monocytes were purified by gradient magnetic sorting method using miniMACS system with anti-CD14 microbeads (Miltenyi Biotec, Bergisch Bladbach, Germany). After incubation at 37° C. for 2 hr, nonadherent cells were removed and adherent cells were collected. The purity of isolated CD14^+ monocytes was over 90% by using flow cytometric analysis. Immature DCs were generated from CD14^+ monocytes by culture in RPMI 1640 medium supplemented with 10% fetal calf serum, 100 ng/mL GM-CSF (Schering-Plough, Munich, Germany), 50 ng/mL IL-4 (R&D Systems, Minneapolis, Minn., USA), and daphnoretin (0, 1.1, 3.3, 10 or 30 μM) every 3 days for 6 days in a humidified 5% CO2 incubator. To trigger maturation of DCs, immature DCs were incubated with lipopolysaccharide (LPS) (5 ng/mL) (Sigma, St. Louis, Mo., USA) and/or a combination of cytokines including 5 ng/mL TNF-α, 5 ng/mL IL-1β, 15 ng/mL IL-6 (R&D Systems, Minneapolis, Minn., USA), and 1 μg/mL prostaglandin E2 (PGE2) (Sigma-Aldrich, St. Louis, Mo., USA) for 24 hr. It has been shown that monocyte-conditioned medium containing a combination of pro-inflammatory cytokines (i.e., TNF-α, IL-1, IL-6, and PGE2) or LPS triggers efficient DCs maturation. Daphnoretin was purchased from Sigma (St. Louis, Mo., USA) and dissolved in PBS as a stock solution (0.5 mg/mL). Dual-color immunostain was performed using fluorescein isothiocyanate (FITC)- and phycoerythrin (PE)-conjugated monoclonal antibodies (mAbs). The mouse anti-human mAbs IgG1:FITC/mouse IgG1:PE, and appropriate isotype controls were purchased from Serotec (Oxford, UK) and used for characterization of DCs. The isotype controls used in our study included anti-CD11c and anti-CD14 (for IgG-FITC), anti-CD1a-PE, anti-CD80-PE, anti-CD83-PE, anti-HLA-DR-PE and anti-DC-SIGN-PE. Cells were incubated with saturating concentrations of PE-conjugated mAbs and primary CD11c mAbs followed by IgG-FITC at 4° C. for 30 min. After washing twice with PBS, 1×10^6 cells were applied to a FACS caliber flow cytometer (BD Biosciences, San Jose, Calif., USA). Data were collected and analyzed using CellQuest Software (BD Biosciences, San Jose, Calif., USA).

[3] = test system: human monocyte-derived dendritic cells (DCs); experiment: Number of viable DCs, trypan blue dye exclusion test; format: cell-based; details: daphnoretin 1.1, 3.3, 10 or 30 μM, FIG. 3
Method: as §1

[4] = test system: CD4+CD45RA+ naive T cells; experiment: Allogenic naive T cell proliferation stimulated by matured DCs (BrdU); format: cell-based, human; details: mature DCs : CD4+CD45RA+ cells 1:10 or 1:30; FIG. 4
Text: Nonadherent cells from culture of isolated mononuclear cells were used to purify naïve T cells. Naïve T cells were enriched with a CD4^+CD45RA^+T cell isolation kit (Miltenyi Biotec) using a MIniMACS system with negative selection technique. Monocyte-derived DCs were harvested and irradiated (3,000 cGy in a single fraction) with 6 MeV X-ray generated by linear accelerator (Clinac® 1800, Varian Associates Inc., CA) at a dose of 4.0 Gy/min. Full electron equilibrium was ensured for each fraction by a parallel plate PR-60C ionization chamber (Capintel Inc., Ramsey, N.J., USA). […] The cells were then collected and the incorporated BrdU was detected using flow cytometry to estimate T cell proliferation.

[5] = test system: phosphorylated c-Jun N-terminal kinase (p-JNK); experiment: Immunoblot analysis of phosphorylated JNK in DCs; format: cell-based, human; details: FIG. 5 panels A and B
Method: as §1

[6] = test system: hepatitis B surface antigen; details: human hepatoma Hep3B cells; cited from earlier work
protein kinase C (PKC) = details: human hepatoma Hep3B cells; cited from earlier work
[7] = test system: Ehrlich ascites tumor, cervical cancer and lung adenocarcinoma; details: cited from earlier work
[8] = test system: acute rejection of skin allografts; experiment: Skin allograft transplantation model
Text: Male C57BL/6(H-2^b) and BALB/6(H-2^d) mice aged 6-8 weeks were purchased from Animal Resource Center of National Science Council of Taiwan (Taipei, Taiwan) and maintained in a room with 12 hr light/dark cycles. Standard laboratory chow and water were available ad libitum. […] Briefly, a 2×1 cm full-thickness skin graft was harvested from the donor mouse and sutured to the graft bed of a recipient mouse. The skin graft rejection was defined as necrosis of more than 80% of the epidermal surface. Daphnoretin (0.5 or 1.0 mg/Kg) and rapamycin (3.0 mg/Kg) were administered intraperitoneally daily until rejection was observed. Body weight was recorded and the white blood cell count was estimated by an automatic counter.

Compound | differentiation process of DCs (morphology, formation of dendrites) ([1]; daphnoretin 1.1, 3.3, 10 or 30 μM, FIG. 1) | morphology of DCs ([1]; treated with daphnoretin and anisomycin, FIG. 5 panel C) | expression of CD1a ([2]; FIG. 2 panel A) | expression of macrophage marker CD14 ([2]; FIG. 2 panel B) | expression of CD40 ([2]; FIG. 2 panel C) | expression of CD83 ([2]; FIG. 2 panel D) | expression of DC-SIGN ([2]; FIG. 2 panel E) | cell viability (cell numbers of mature and immature DCs) [3] | proliferation of DCs stimulated T cells [4] | level of p-JNK in DCs ([5]; DCs treated with daphnoretin) | expression of hepatitis B surface antigen [6] | protein kinase C (PKC) activity and intracellular level (protein kinase C (PKC)) | anti-cancer activity [7] | fraction of the survived skin graft ([8]; daphnoretin 1.0 mg/Kg/day intraperitoneally, FIG. 6 panel A) | body weight of the recipient mouse ([8]; daphnoretin dose employed, vs control, FIG. 6 panel B) | white blood cell count of the recipient mouse ([8]; daphnoretin dose employed, vs control, FIG. 6 panel C) | level of p-JNK in DCs treated with daphnoretin, effect of added JNK activator ([5]; co-incubated with daphnoretin)
COc1cc2cc(Oc3ccc4ccc(=O)oc4c3)c(=O)oc2cc1O [daphnoretin, 7-hydroxy-6-methoxy-3,7′-dicoumaryl ether] | suppressed | remained rounded and without the formation of any dendrites | suppressed | unaffected | suppressed | suppressed | suppressed | reduced the cell numbers of both mature and immature DCs in dose-dependent manner | suppressed | decrease | suppressing the expression of hepatitis B surface antigen | inactivating protein kinase C (PKC) | possess anti-cancer activity | even higher than that treated of the rapamycin-treated mouse | did not vary significantly | did not vary significantly | 
COc1ccc(C[C@H]2NC[C@H](O)[C@H]2OC(C)=O)cc1 [anisomycin, reference compound] |  |  |  |  |  |  |  |  |  |  |  |  |  |  |  |  | could reverse this decrease
